Test results: US8993258B2, “Fluorinated voltage sensitive dyes, preparation thereof, and optical methods of use” (The University of Connecticut, priority 2012, dated 2015)

Key:
[1] = Fluorescence emission spectra and fluorescence quantum yield (FQY) of dyes; format: physicochemical
Text: (§1) Similar methods were used to prepare additional dyes.

[2] = One-photon absorption spectra of dyes (λmax abs, logε); format: physicochemical
Text: as §1

[3] = Photobleaching rate under white light from a xenon lamp; format: physicochemical; details: single exponential decay fit of absorbance
Summary of the method: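 Photostability was scored as a photobleaching rate, expressed relative to the unsubstituted parent dye. Dyes were irradiated with white light from a xenon lamp while absorbance was monitored. The rate was derived by fitting a single exponential decay to the absorbance over time.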

[4] = Voltage sensitivity: fluorescence change for a 100 millivolt step in membrane potential

FQY ([1]; Ethanol) | λmax em ([1]; Ethanol) | FQY ([1]; Lipid vesicles) | λmax em ([1]; Lipid vesicles) | FQY ([1]; PBS buffer) | logε ([2]; Ethanol) | λmax abs ([2]; Ethanol) | logε ([2]; Lipid vesicles) | λmax abs ([2]; Lipid vesicles) | logε ([2]; PBS buffer) | λmax abs ([2]; PBS buffer) | Photobleaching rate (Relative to unsubstituted dye) [3] | SMILES | further results
0.001 | 720 nm | 0.16 | 636 nm | — (FQY < 0.001) | 4.5 | 539 nm | 4.4 | 488 nm | 4.2 | 493 nm | 0.63 | CCCCN(CCCC)c1ccc2cc(/C=C(\F)c3cc[n+](CCC[N+](CC)(CC)CC)cc3)ccc2c1 [PY3006] | Voltage sensitivity ΔF/F per 100 mV ([4]; Ex/Em 578/>695 nm): 12% 578/ >695
0.003 | 710 nm | 0.21 | 660 nm | — (FQY < 0.001) | 4.6 | 558 nm | 4.5 | 500 nm | 4.4 | 513 nm | 0.66 | CCCCN(CCCC)c1ccc2cc(/C=C(\F)c3cc[n+](CCC[N+](CC)(CC)CC)cc3F)ccc2c1 [PY4160] | Voltage sensitivity ΔF/F per 100 mV ([4]; Ex/Em 602/>695 nm): 10% 602/ >695
0.007 | 704 nm | 0.25 | 610 nm | 0.002 | 4.4 | 481 nm | 4.3 | 444 nm | 4.2 | 401 nm | 0.83 | CCCCN(CCCC)c1ccc2cc(/C=C/c3cc[n+](CCC[N+](CC)(CC)CC)cc3)ccc2c1F [PY3174] | λmax em ([1]; PBS buffer): 666 nm; Voltage sensitivity ΔF/F per 100 mV ([4]; Ex/Em 545/>695 nm): 6% 545/ >695
0.003 | 720 nm | 0.22 | 632 nm | — (FQY < 0.001) | 4.3 | 509 nm | 4.3 | 465 nm | 4.1 | 414 nm | 0.91 | CCCCN(CCCC)c1ccc2cc(/C=C/c3cc[n+](CCC[N+](CC)(CC)CC)cc3F)ccc2c1F [PY3179] | Voltage sensitivity ΔF/F per 100 mV ([4]; Ex/Em 572/>695 nm): 18% 572/ >695
0.001 | 760 nm | 0.26 | 643 nm | — (FQY < 0.001) | 4.4 | 497 nm | 4.3 | 464 nm | 4.0 | 409 nm | 0.62 | CCCCN(CCCC)c1ccc2cc(/C=C(\F)c3cc[n+](CCC[N+](CC)(CC)CC)cc3)ccc2c1F [PY4038] | Voltage sensitivity ΔF/F per 100 mV ([4]; Ex/Em 578/>695 nm): 7% 578/ >695

Second part, the molecule before the results:

SMILES | FQY ([1]; Ethanol) | λmax em ([1]; Ethanol) | FQY ([1]; Lipid vesicles) | λmax em ([1]; Lipid vesicles) | FQY ([1]; PBS buffer) | logε ([2]; Ethanol) | λmax abs ([2]; Ethanol) | logε ([2]; Lipid vesicles) | λmax abs ([2]; Lipid vesicles) | logε ([2]; PBS buffer) | λmax abs ([2]; PBS buffer) | Photobleaching rate (Relative to unsubstituted dye) [3] | further results
CCCCN(CCCC)c1ccc2cc(/C=C/c3cc[n+](CCC[N+](CC)(CC)CC)cc3)ccc2c1C(F)(F)F [PY4093] | 0.046 | 687 nm | 0.35 | 597 nm | 0.005 | 4.6 | 449 nm | 4.5 | 418 nm | 4.3 | 430 nm | 0.95 | λmax em ([1]; PBS buffer): 715 nm; Voltage sensitivity ΔF/F per 100 mV ([4]; Ex/Em 530/>645 nm): 8% 530/ >645
CCCCN(CCCC)c1ccc2cc(/C=C(\F)c3cc[n+](CCC[N+](CC)(CC)CC)cc3)ccc2c1C(F)(F)F [PY4125] | 0.006 | 694 nm | 0.30 | 590 nm | 0.004 | 4.4 | 453 nm | 4.4 | 422 nm | 4.2 | 395 nm | 1.35 | λmax em ([1]; PBS buffer): 624 nm; Voltage sensitivity ΔF/F per 100 mV ([4]; Ex/Em 510/>695 nm): 5% 510/ >695
CCCCN(CCCC)c1ccc2cc(/C=C/c3cc[n+](CCC[N+](CC)(CC)CC)cc3F)ccc2c1 [PY3128] | 0.002 | 720 nm | 0.26 | 632 nm | — (FQY < 0.001) | 4.4 | 545 nm | 4.3 | 495 nm | 4.2 | 506 nm | 0.63 | Voltage sensitivity ΔF/F per 100 mV ([4]; Ex/Em 590/>695 nm): 6% 590/ >695
CCCCN(CCCC)c1ccc2cc(/C=C/c3c(F)c[n+](CCC[N+](CC)(CC)CC)c4ccccc34)ccc2c1 [PY4221] | — (FQY < 0.001) |  | 0.07 | 743 nm | — (FQY < 0.001) | 4.4 | 627 nm | 4.2 | 553 nm | 4.1 | 537 nm |  | Voltage sensitivity ΔF/F per 100 mV ([4]; Ex/Em 670/>780 nm): 6% 670/ >780
CCCCN(CCCC)c1ccc2cc(/C=C(\F)c3cc[n+](CCC[N+](CC)(CC)CC)cc3F)ccc2c1F [PY4158] | 0.003 | 845 nm | 0.23 | 651 nm | — (FQY < 0.001) | 4.3 | 510 nm | 4.2 | 470 nm | 4.0 | 408 nm | 0.89 | Voltage sensitivity ΔF/F per 100 mV ([4]; Ex/Em 580/>695 nm): 7% 580/ >695
CCCCN(CCCC)c1ccc2cc(/C=C/c3c(F)c[n+](CCC[N+](CC)(CC)CC)c4ccccc34)ccc2c1 [PY3304] | 0.001 | 825 nm | 0.03 | 686 nm | — (FQY < 0.001) | 4.4 | 617 nm | 4.2 | 547 nm | 4.0 | 565 nm | 5.26 | Voltage sensitivity ΔF/F per 100 mV ([4]; Ex/Em 645/>745 nm): 12% 645/ >745
CCCCN(CCCC)c1ccc2cc(/C=C/c3c(F)c[n+](CCC[N+](CC)(CC)CC)cc3F)ccc2c1 [PY3184] | 0.004 | 658 nm | 0.18 | 646 nm | — (FQY < 0.001) | 4.6 | 569 nm | 4.3 | 511 nm | 4.2 | 530 nm | 1.56 | Voltage sensitivity ΔF/F per 100 mV ([4]; Ex/Em 610/>695 nm): 11% 610/ >695
